Molecular target: T1, AM2 receptor (CALCRL+RAMP3) (Homo sapiens, UniProt O60896+Q16602)
T1 construct: host or cells: 1321N1
Assay: AM2 receptor inhibition, LANCE TR-FRET cAMP agonist-antagonist competition assay
Type: cell-based
Conditions: inhibition of AM induced cAMP activation; 1321N1 cells transfected with CALCRL+RAMP3; read-out: AM2 pIC50 (converted)

T1 sequence (Q16602 23-461): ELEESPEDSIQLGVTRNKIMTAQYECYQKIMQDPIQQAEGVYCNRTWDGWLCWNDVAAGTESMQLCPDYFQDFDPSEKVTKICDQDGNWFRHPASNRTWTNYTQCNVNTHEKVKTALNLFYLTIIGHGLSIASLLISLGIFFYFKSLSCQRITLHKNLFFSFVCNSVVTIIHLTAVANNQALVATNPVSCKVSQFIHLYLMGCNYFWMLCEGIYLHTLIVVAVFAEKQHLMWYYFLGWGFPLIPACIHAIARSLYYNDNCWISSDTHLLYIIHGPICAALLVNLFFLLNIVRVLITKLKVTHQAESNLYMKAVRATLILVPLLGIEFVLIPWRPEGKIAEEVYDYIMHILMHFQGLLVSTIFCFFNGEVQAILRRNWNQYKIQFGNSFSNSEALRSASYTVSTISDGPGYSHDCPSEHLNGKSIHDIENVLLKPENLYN
T1 sequence (O60896 24-148): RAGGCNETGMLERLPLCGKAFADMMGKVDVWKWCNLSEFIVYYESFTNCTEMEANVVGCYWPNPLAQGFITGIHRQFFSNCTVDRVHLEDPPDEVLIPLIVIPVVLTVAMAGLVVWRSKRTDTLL

Structure (SMILES)	IC50 [nM]
CNCc1ccccc1CN(CC(=O)Nc1ccc2c(c1)CC1(C2)C(=O)Nc2ncccc21)C(=O)C1CCN(C(=O)N(C)C)CC1 (stereo not shown) [Example 71, N1,N1-dimethyl-N4-(2-((methylamino)methyl)benzyl)-N4-(2-oxo-2-((2′-oxo-1,1′,2′,3-tetrahydrospiro[indene-2,3′-pyrrolo[2,3-b]pyridin]-5-yl)amino)ethyl)piperidine-1,4-dicarboxamide 2,2,2-trifluoroacetate]	2.45
CNCc1cc(F)c(F)cc1CN(CC(=O)Nc1ccc2c(c1)CC1(C2)C(=O)Nc2ncccc21)C(=O)C(C)(C)C (stereo not shown) [Example 37, N-(4,5-difluoro-2-((methylamino)methyl)benzyl)-N-(2-oxo-2-((2′-oxo-1,1′,2′,3-tetrahydrospiro[indene-2,3′-pyrrolo[2,3-b]pyridin]-5-yl)amino)ethyl)pivalamide]	145
O=C(CN(Cc1ccccc1CN1CCC1)C(=O)C1CCCC1)Nc1ccc2c(c1)CC1(C2)C(=O)Nc2ncccc21 (stereo not shown) [Example 46, N-(2-(Azetidin-1-ylmethyl)benzyl)-N-(2-oxo-2-((2′-oxo-1,1′,2′,3-tetrahydrospiro[indene-2,3′-pyrrolo[2,3-b]pyridin]-5-yl)amino)ethyl)cyclopentanecarboxamide]	2.82
O=C(CN(Cc1ccccc1CN1CCC1)C(=O)c1ccccc1)Nc1ccc2c(c1)CC1(C2)C(=O)Nc2ncccc21 (stereo not shown) [Example 51, N-(2-(Azetidin-1-ylmethyl)benzyl)-N-(2-oxo-2-((2′-oxo-1,1′,2′,3-tetrahydrospiro[indene-2,3′-pyrrolo[2,3-b]pyridin]-5-yl)amino)ethyl)benzamide]	85.1
CNCc1ccccc1CN(CC(=O)Nc1ccc2c(c1)CC1(C2)C(=O)Nc2ncccc21)C(=O)C1(C(F)(F)F)CCC1 (stereo not shown) [Example 76, N-[[2-(methylaminomethyl)phenyl]methyl]-N-[2-oxo-2-[(2-oxospiro[1H-pyrrolo[2,3-b]pyridine-3,2′-indane]-5′-yl)amino]ethyl]-1-(trifluoromethyl)cyclobutanecarboxamide 2,2,2-trifluoroacetate]	1.35
CNCc1ccccc1CN(CC(=O)Nc1ccc2c(c1)C[C@@]1(C2)C(=O)Nc2ncccc21)C(=O)C1(C(F)(F)F)CCCC1 [Example 94, N-[[2-(methylaminomethyl)phenyl]methyl]-N-[2-oxo-2-[[(3R)-2-oxospiro[1H-pyrrolo[2,3-b]pyridine-3,2′-indane]-5′-yl]amino]ethyl]-1-(trifluoromethyl)cyclopentanecarboxamide 2,2,2-trifluoroacetate]	17.8

Further lines, results first:

IC50 [nM]	Structure (SMILES)
245	O=C(CN(Cc1ccccc1CN1CCC1)C(=O)CC(F)(F)F)Nc1ccc2c(c1)CC1(C2)C(=O)Nc2ncccc21 (stereo not shown) [Example 45, N-(2-(Azetidin-1-ylmethyl)benzyl)-3,3,3-trifluoro-N-(2-oxo-2-((2′-oxo-1,1′,2,3-tetrahydrospiro[indene-2,3′-pyrrolo[2,3-b]pyridin]-5-yl)amino)ethyl)propanamide]
91.2	CC(C)(C)C(=O)N(CC(=O)Nc1ccc2c(c1)CC1(C2)C(=O)Nc2ncccc21)Cc1ccccc1CN1CC(F)C1 (stereo not shown) [Example 10, N-(2-((3-Fluoroazetidin-1-yl)methyl)benzyl)-N-(2-oxo-2-((2′-oxo-1,1′,2′,3-tetrahydrospiro[indene-2,3′-pyrrolo[2,3-b]pyridin]-5-yl)amino)ethyl)pivalamide]
100	CC(C)(C)C(=O)N(CC(=O)Nc1ccc2c(c1)CC1(C2)C(=O)Nc2ncccc21)Cc1ccccc1C(=N)NO (stereo not shown) [Example 41, N-(2-(N-Hydroxycarbamimidoyl)benzyl)-N-(2-oxo-2-((2′-oxo-1,1′,2′,3-tetrahydrospiro[indene-2,3′-pyrrolo[2,3-b]pyridin]-5-yl)amino)ethyl)pivalamide]
151	CNCc1cccc(F)c1CN(CC(=O)Nc1ccc2c(c1)CC1(C2)C(=O)Nc2ncccc21)C(=O)C(C)(C)C (stereo not shown) [Example 56, N-(2-Fluoro-6-((methylamino)methyl)benzyl)-N-(2-oxo-2-((2′-oxo-1,1′,2′,3-tetrahydrospiro[indene-2,3′-pyrrolo[2,3-b]pyridin]-5-yl)amino)ethyl)pivalamide]

Reference: patent publication US11400081B2, “Compounds” (The University of Sheffield, priority 2017, dated 2022)
